We go through one compound from PMC10487430, “Dual Modulator of ASIC Channels and GABAA Receptors from Thyme Alters Fear-Related Hippocampal Activity” (International Journal of Molecular Sciences, 2023).

The target in one assay is T1, rat ASIC1a (rASIC1a) (Rattus norvegicus, UniProt P55926).
T1 construct: gene Asic1; homomeric rat ASIC1a expressed in Xenopus laevis oocytes
T1 sequence (P55926 1-526): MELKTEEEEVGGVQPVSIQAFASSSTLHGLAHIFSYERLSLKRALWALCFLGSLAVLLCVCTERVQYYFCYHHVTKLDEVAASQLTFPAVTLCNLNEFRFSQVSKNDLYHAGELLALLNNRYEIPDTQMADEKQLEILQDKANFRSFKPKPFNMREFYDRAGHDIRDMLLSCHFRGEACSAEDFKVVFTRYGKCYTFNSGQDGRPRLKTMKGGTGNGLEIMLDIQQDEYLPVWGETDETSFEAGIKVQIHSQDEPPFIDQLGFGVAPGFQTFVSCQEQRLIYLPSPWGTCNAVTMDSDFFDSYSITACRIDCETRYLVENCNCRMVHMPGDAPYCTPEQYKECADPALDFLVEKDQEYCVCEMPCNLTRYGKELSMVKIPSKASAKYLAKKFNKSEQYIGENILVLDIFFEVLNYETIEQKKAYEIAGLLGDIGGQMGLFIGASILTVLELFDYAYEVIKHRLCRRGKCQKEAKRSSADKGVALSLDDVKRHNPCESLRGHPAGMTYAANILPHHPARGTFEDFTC
Nature of the assay: two-electrode voltage clamp in Xenopus oocytes; inhibition of pH […].0-induced currents. Type of assay: cell-based. In general terms: Two-electrode voltage clamp holds a large cell at a set potential and records current.

In the next assay the target is T2, α1β2γ2 GABAA receptor (Mus musculus, UniProt P22723+P62812+P63137).
T2 construct: gene Gabra1; murine α1, β2, and γ2 GABAA subunits expressed in Xenopus laevis oocytes; with GABAA receptor β2 (Gabrb2) and γ2 (Gabrg2) subunits
Nature of the assay: two-electrode voltage clamp in Xenopus oocytes; potentiation of currents induced by […] GABA. Format: cell-based.

T2 sequence (P62812 28-455): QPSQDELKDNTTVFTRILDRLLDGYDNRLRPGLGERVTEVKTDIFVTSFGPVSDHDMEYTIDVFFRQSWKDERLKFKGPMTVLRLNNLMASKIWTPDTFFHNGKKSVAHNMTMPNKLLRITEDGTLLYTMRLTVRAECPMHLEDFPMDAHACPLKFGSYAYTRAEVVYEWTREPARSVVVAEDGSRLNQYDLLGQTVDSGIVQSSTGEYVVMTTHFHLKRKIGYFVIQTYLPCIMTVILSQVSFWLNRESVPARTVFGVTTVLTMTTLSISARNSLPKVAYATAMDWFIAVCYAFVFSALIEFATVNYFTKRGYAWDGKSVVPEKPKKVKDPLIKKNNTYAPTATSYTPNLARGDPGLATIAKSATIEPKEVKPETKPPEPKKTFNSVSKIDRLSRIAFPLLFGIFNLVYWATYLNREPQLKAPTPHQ
T2 sequence (P63137 26-512): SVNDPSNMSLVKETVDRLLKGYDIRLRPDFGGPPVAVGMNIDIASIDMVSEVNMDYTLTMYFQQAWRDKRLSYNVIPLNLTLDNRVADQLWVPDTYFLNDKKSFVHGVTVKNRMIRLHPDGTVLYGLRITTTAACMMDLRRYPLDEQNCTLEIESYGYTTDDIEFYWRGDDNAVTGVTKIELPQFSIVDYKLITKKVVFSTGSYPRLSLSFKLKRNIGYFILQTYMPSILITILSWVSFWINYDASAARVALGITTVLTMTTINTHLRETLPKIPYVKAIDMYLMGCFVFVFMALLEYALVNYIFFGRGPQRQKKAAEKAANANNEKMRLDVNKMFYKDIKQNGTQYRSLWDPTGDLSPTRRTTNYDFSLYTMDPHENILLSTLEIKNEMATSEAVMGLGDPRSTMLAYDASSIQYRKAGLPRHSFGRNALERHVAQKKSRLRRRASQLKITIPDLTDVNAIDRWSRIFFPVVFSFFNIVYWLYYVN
T2 sequence (P22723 39-474): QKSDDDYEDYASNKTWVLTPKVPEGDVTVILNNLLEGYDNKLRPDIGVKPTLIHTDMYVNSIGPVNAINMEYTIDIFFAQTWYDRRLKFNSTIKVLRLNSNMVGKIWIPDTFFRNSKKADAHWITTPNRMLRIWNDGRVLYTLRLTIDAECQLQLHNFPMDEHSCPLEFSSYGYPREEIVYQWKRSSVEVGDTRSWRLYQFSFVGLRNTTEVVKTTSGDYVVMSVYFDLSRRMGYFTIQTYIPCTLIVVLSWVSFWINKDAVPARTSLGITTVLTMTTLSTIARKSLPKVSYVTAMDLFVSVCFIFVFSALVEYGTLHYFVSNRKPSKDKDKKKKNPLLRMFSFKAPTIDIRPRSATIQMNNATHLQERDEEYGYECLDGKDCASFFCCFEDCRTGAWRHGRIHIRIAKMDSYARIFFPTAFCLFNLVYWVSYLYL

As to `O=C(O)C[C@H](C(=O)O)[C@H](OC(=O)[C@@H]1C(C(=O)O[C@@H](C(=O)O)[C@@H](CC(=O)O)C(=O)O)=Cc2cc(O)c(O)cc2[C@H]1c1ccc(O)c(O)c1)C(=O)O` [sevanol], inhibition at rat ASIC1a (rASIC1a) was half-maximal at 198 ± 19 µM (IC50). Further, the EC50 (commonly the concentration at which the effect is half-maximal) on α1β2γ2 GABAA receptor was determined as 0.56 ± 0.04 µM.
